In BigSolDB 2.1:

CC1=CC(=O)c2ccccc2C1=O
solubility (mole fraction)
Details	in 1,2-dichloroethane	in acetone	in acetonitrile	in cyclohexane	in dichloromethane	in isopropanol	in methanol	in methyl acetate	in n-butanol	in n-propanol
278.15 K	0.0879	0.0305	0.016	–	0.111	0.00291	0.00285	0.0427	0.00314	0.00343
283.15 K	0.108	0.0381	0.0197	0.00329	0.128	0.00373	0.00335	0.0481	0.00417	0.00426
288.15 K	0.12	0.0439	0.027	0.00417	0.148	0.0048	0.00396	0.0595	0.0057	0.00564
293.15 K	0.142	0.0534	0.0326	0.00514	0.169	0.00588	0.00484	0.0718	0.00742	0.00685
298.15 K	0.159	0.0669	0.0403	0.00673	0.193	0.00764	0.00606	0.0854	0.00994	0.00838
303.15 K	0.187	0.0809	0.0491	0.00848	0.219	0.0096	0.00709	0.105	0.0127	0.01
308.15 K	0.21	0.0983	0.0609	0.0103	0.247	0.0122	0.00827	0.12	0.0169	0.0122
313.15 K	0.243	0.118	0.0737	0.0131	0.277	0.0153	0.00975	0.148	0.0223	0.0143
